From ChEMBL document CHEMBL1149623, “Identification of antibacterial and antiviral activities of novel fused 1,2,4-triazine esters” (2007)

How the values were obtained:
Assay type in all cases: functional
Streptococcus pyogenes [1] = test: Antibacterial activity against Streptococcus pyogenes at 100 mg/mL after 24 hrs by disc diffusion method
[2] = tested on: Staphylococcus epidermidis; test: Antibacterial activity against Staphylococcus epidermidis at 100 mg/mL after 24 hrs by disc diffusion method
Staphylococcus aureus [3] = test: Antibacterial activity against Staphylococcus aureus ATCC 25923 at 100 mg/mL after 24 hrs by disc diffusion method
Escherichia coli [4] = test: Antibacterial activity against Escherichia coli ATCC 25922 at 100 mg/mL after 24 hrs by disc diffusion method
[5] = tested on: Staphylococcus epidermidis; test: Antibacterial activity against Staphylococcus epidermidis at 200 mg/mL after 24 hrs by disc diffusion method
Streptococcus pyogenes [6] = test: Antibacterial activity against Streptococcus pyogenes at 200 mg/mL after 24 hrs by disc diffusion method
Escherichia coli [7] = test: Antibacterial activity against Escherichia coli ATCC 25922 at 200 mg/mL after 24 hrs by disc diffusion method
Staphylococcus aureus [8] = test: Antibacterial activity against Staphylococcus aureus ATCC 25923 at 200 mg/mL after 24 hrs by disc diffusion method

SMILES	Inhibition (Streptococcus pyogenes [1])	Inhibition [2]	Inhibition (Staphylococcus aureus [3])	Inhibition (Escherichia coli [4])	Inhibition [5]	Inhibition (Streptococcus pyogenes [6])	Inhibition (Escherichia coli [7])	Inhibition (Staphylococcus aureus [8])
COC(=O)CC1NN=C2N(CCN2c2ccc(Cl)cc2)C1=O (centres undefined)	16 mm	16 mm	10 mm	<9 mm	–	–	–	–
CCOC(=O)CC1NN=C2N(CCN2c2ccc(OC)cc2)C1=O (centres undefined)	>20 mm	<9 mm	<9 mm	16 mm	–	–	–	–
CCOC(=O)CC1NN=C2N(CCN2c2cccc(Cl)c2)C1=O (centres undefined)	>20 mm	<9 mm	10 mm	>20 mm	–	–	–	–
COC(=O)CC1NN=C2N(CCN2c2ccccc2)C1=O (centres undefined)	>20 mm	16 mm	10 mm	<9 mm	–	–	–	–
COC(=O)CC1NN=C2N(CCN2c2ccc(OC)cc2)C1=O (centres undefined)	>20 mm	16 mm	10 mm	>20 mm	–	–	–	–
CC1(C)S[C@@H]2[C@H](NC(=O)[C@H](N)c3ccccc3)C(=O)N2[C@H]1C(=O)O [AMPICILLIN]	–	–	–	–	10 mm	16 mm	16 mm	16 mm
